Results: PubChem BioAssay (NCI)
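In this assay, cells in 96-well plates receive the compound at five concentrations for 48 hours. Endpoints are linearly interpolated between the surrounding concentrations. Definition used: TGI = concentration required for complete inhibition of growth.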

Tests used:
Assay in all cases: NCI tumour cell line growth inhibition, 48 h
786-0 renal = system: 786-0 renal
A498 renal = system: A498 renal
A549 NSCLC = system: A549 NSCLC
ACHN renal = system: ACHN renal
CAKI-1 renal = system: CAKI-1 renal
CCRF-CEM leukemia = system: CCRF-CEM leukemia
COLO 205 colon = system: COLO 205 colon
DU-145 prostate = system: DU-145 prostate
EKVX NSCLC = system: EKVX NSCLC
HCT-116 colon = system: HCT-116 colon
HCT-15 colon = system: HCT-15 colon
HL-60(TB) leukemia = system: HL-60(TB) leukemia
HOP-62 NSCLC = system: HOP-62 NSCLC
HOP-92 NSCLC = system: HOP-92 NSCLC
HS 578T breast = system: HS 578T breast
HT29 colon = system: HT29 colon
IGROV1 ovarian = system: IGROV1 ovarian
K-562 leukemia = system: K-562 leukemia
KM12 colon = system: KM12 colon
LOX IMVI melanoma = system: LOX IMVI melanoma
M14 melanoma = system: M14 melanoma
MALME-3M melanoma = system: MALME-3M melanoma
MCF7 breast = system: MCF7 breast
MDA-MB-231 breast = system: MDA-MB-231 breast
MDA-N = system: MDA-N
MOLT-4 leukemia = system: MOLT-4 leukemia
NCI-H226 lung = system: NCI-H226 lung
NCI-H23 lung = system: NCI-H23 lung
NCI-H460 lung = system: NCI-H460 lung
NCI/ADR-RES ovarian = system: NCI/ADR-RES ovarian
OVCAR-3 ovarian = system: OVCAR-3 ovarian
OVCAR-4 ovarian = system: OVCAR-4 ovarian
OVCAR-5 ovarian = system: OVCAR-5 ovarian
OVCAR-8 ovarian = system: OVCAR-8 ovarian
PC-3 prostate = system: PC-3 prostate
RPMI-8226 leukemia = system: RPMI-8226 leukemia
RXF 393 renal = system: RXF 393 renal
SF-268 CNS = system: SF-268 CNS
SF-295 CNS = system: SF-295 CNS
SF-539 CNS = system: SF-539 CNS
SK-MEL-2 melanoma = system: SK-MEL-2 melanoma
SK-MEL-28 melanoma = system: SK-MEL-28 melanoma
SK-MEL-5 melanoma = system: SK-MEL-5 melanoma
SK-OV-3 ovarian = system: SK-OV-3 ovarian
SN12C renal = system: SN12C renal
SNB-19 CNS = system: SNB-19 CNS
SNB-75 CNS = system: SNB-75 CNS
SR leukemia = system: SR leukemia
SW-620 colon = system: SW-620 colon
T-47D breast = system: T-47D breast
TK-10 renal = system: TK-10 renal
U251 CNS = system: U251 CNS
UACC-257 melanoma = system: UACC-257 melanoma
UACC-62 melanoma = system: UACC-62 melanoma
UO-31 renal = system: UO-31 renal
MDA-MB-435 = system: MDA-MB-435
NCI-H522 lung = system: NCI-H522 lung
HCC-2998 colon = system: HCC-2998 colon

## COc1ccc2nc3c([N+](=O)[O-])ccc(NCCN(C)C)c3c(N)c2c1
786-0 renal
  TGI: 3.31 µM
A498 renal
  TGI: 4.31 µM
A549 NSCLC
  TGI: 3.29 µM
ACHN renal
  TGI: 2.64 µM
CAKI-1 renal
  TGI: 3.42 µM
CCRF-CEM leukemia
  TGI: 0.531 µM
COLO 205 colon
  TGI: 2.31 µM
DU-145 prostate
  TGI: 3.17 µM
EKVX NSCLC
  TGI: 3.79 µM
HCT-116 colon
  TGI: 0.296 µM
HCT-15 colon
  TGI: 2.49 µM
HL-60(TB) leukemia
  TGI: 0.41 µM
HOP-62 NSCLC
  TGI: 3.65 µM
HOP-92 NSCLC
  TGI: 2.54 µM
HS 578T breast
  TGI: 4.5 µM
HT29 colon
  TGI: 1.73 µM
IGROV1 ovarian
  TGI: 2.74 µM
K-562 leukemia
  TGI: 0.607 µM
KM12 colon
  TGI: 0.939 µM
LOX IMVI melanoma
  TGI: 1.08 µM
M14 melanoma
  TGI: 3.03 µM
MALME-3M melanoma
  TGI: 3.14 µM
MCF7 breast
  TGI: 1.1 µM
MDA-MB-231 breast
  TGI: 1.27 µM
MDA-N
  TGI: 3.19 µM
MOLT-4 leukemia
  TGI: 2.46 µM
NCI-H226 lung
  TGI: 4.54 µM
NCI-H23 lung
  TGI: 3.73 µM
NCI-H460 lung
  TGI: 2.95 µM
NCI/ADR-RES ovarian
  TGI: 3.03 µM
OVCAR-3 ovarian
  TGI: 3.31 µM
OVCAR-4 ovarian
  TGI: 2.95 µM
OVCAR-5 ovarian
  TGI: 3.09 µM
OVCAR-8 ovarian
  TGI: 4.33 µM
PC-3 prostate
  TGI: 2.81 µM
RPMI-8226 leukemia
  TGI: 0.557 µM
RXF 393 renal
  TGI: 3.36 µM
SF-268 CNS
  TGI: 3.12 µM
SF-295 CNS
  TGI: 3.62 µM
SF-539 CNS
  TGI: 3.05 µM
SK-MEL-2 melanoma
  TGI: 4.76 µM
SK-MEL-28 melanoma
  TGI: 4.16 µM
SK-MEL-5 melanoma
  TGI: 3.45 µM
SK-OV-3 ovarian
  TGI: 3.13 µM
SN12C renal
  TGI: 2.76 µM
SNB-19 CNS
  TGI: 3.98 µM
SNB-75 CNS
  TGI: 2.62 µM
SR leukemia
  TGI: 2.9 µM
SW-620 colon
  TGI: 0.562 µM
T-47D breast
  TGI: 2.91 µM
TK-10 renal
  TGI: 3.09 µM
U251 CNS
  TGI: 3.13 µM
UACC-257 melanoma
  TGI: 3.99 µM
UACC-62 melanoma
  TGI: 3.63 µM
UO-31 renal
  TGI: 2.87 µM

## COc1ccc(-c2oc3ccccc3c(=O)c2O)cc1OC
A498 renal
  TGI: 71.5 µM
A549 NSCLC
  TGI: > 100 µM
ACHN renal
  TGI: > 100 µM
CAKI-1 renal
  TGI: > 100 µM
CCRF-CEM leukemia
  TGI: > 100 µM
COLO 205 colon
  TGI: > 100 µM
DU-145 prostate
  TGI: > 100 µM
EKVX NSCLC
  TGI: > 100 µM
HCT-116 colon
  TGI: > 100 µM
HCT-15 colon
  TGI: > 100 µM
HOP-62 NSCLC
  TGI: 47.4 µM
HT29 colon
  TGI: > 100 µM
IGROV1 ovarian
  TGI: > 100 µM
K-562 leukemia
  TGI: > 100 µM
LOX IMVI melanoma
  TGI: > 100 µM
M14 melanoma
  TGI: > 100 µM
MALME-3M melanoma
  TGI: > 100 µM
MCF7 breast
  TGI: > 100 µM
MDA-MB-231 breast
  TGI: > 100 µM
MDA-MB-435
  TGI: > 100 µM
MDA-N
  TGI: > 100 µM
NCI-H460 lung
  TGI: > 100 µM
NCI-H522 lung
  TGI: > 100 µM
NCI/ADR-RES ovarian
  TGI: > 100 µM
OVCAR-3 ovarian
  TGI: > 100 µM
OVCAR-5 ovarian
  TGI: > 100 µM
PC-3 prostate
  TGI: > 100 µM
SF-268 CNS
  TGI: 53 µM
SF-295 CNS
  TGI: 35.1 µM
SK-MEL-28 melanoma
  TGI: > 100 µM
SK-MEL-5 melanoma
  TGI: > 100 µM
SK-OV-3 ovarian
  TGI: > 100 µM
SNB-19 CNS
  TGI: > 100 µM
SW-620 colon
  TGI: > 100 µM
T-47D breast
  TGI: > 100 µM
TK-10 renal
  TGI: 76.8 µM
U251 CNS
  TGI: 23.4 µM
UACC-257 melanoma
  TGI: > 100 µM
UACC-62 melanoma
  TGI: > 100 µM
UO-31 renal
  TGI: > 100 µM

## COc1ccc(-c2coc3cc(O)ccc3c2=O)cc1
786-0 renal
  TGI: > 100 µM
A498 renal
  TGI: > 100 µM
A549 NSCLC
  TGI: > 100 µM
ACHN renal
  TGI: > 100 µM
CAKI-1 renal
  TGI: > 100 µM
CCRF-CEM leukemia
  TGI: > 100 µM
COLO 205 colon
  TGI: > 100 µM
DU-145 prostate
  TGI: > 100 µM
HCC-2998 colon
  TGI: > 100 µM
HCT-116 colon
  TGI: > 100 µM
HCT-15 colon
  TGI: > 100 µM
HL-60(TB) leukemia
  TGI: > 100 µM
HOP-62 NSCLC
  TGI: > 100 µM
HS 578T breast
  TGI: > 100 µM
HT29 colon
  TGI: > 100 µM
IGROV1 ovarian
  TGI: > 100 µM
K-562 leukemia
  TGI: > 100 µM
KM12 colon
  TGI: > 100 µM
M14 melanoma
  TGI: > 100 µM
MALME-3M melanoma
  TGI: > 100 µM
MCF7 breast
  TGI: > 100 µM
MDA-MB-231 breast
  TGI: > 100 µM
MDA-MB-435
  TGI: > 100 µM
MDA-N
  TGI: > 100 µM
MOLT-4 leukemia
  TGI: > 100 µM
NCI-H226 lung
  TGI: > 100 µM
NCI-H23 lung
  TGI: > 100 µM
NCI-H460 lung
  TGI: > 100 µM
NCI-H522 lung
  TGI: > 100 µM
NCI/ADR-RES ovarian
  TGI: > 100 µM
OVCAR-3 ovarian
  TGI: > 100 µM
OVCAR-5 ovarian
  TGI: > 100 µM
OVCAR-8 ovarian
  TGI: > 100 µM
PC-3 prostate
  TGI: > 100 µM
SF-268 CNS
  TGI: > 100 µM
SF-295 CNS
  TGI: > 100 µM
SF-539 CNS
  TGI: > 100 µM
SK-MEL-2 melanoma
  TGI: > 100 µM
SK-MEL-28 melanoma
  TGI: > 100 µM
SK-MEL-5 melanoma
  TGI: > 100 µM
SK-OV-3 ovarian
  TGI: > 100 µM
SN12C renal
  TGI: > 100 µM
SNB-19 CNS
  TGI: > 100 µM
SNB-75 CNS
  TGI: > 100 µM
SR leukemia
  TGI: > 100 µM
SW-620 colon
  TGI: > 100 µM
T-47D breast
  TGI: > 100 µM
TK-10 renal
  TGI: > 100 µM
U251 CNS
  TGI: > 100 µM
UACC-257 melanoma
  TGI: > 100 µM
UACC-62 melanoma
  TGI: > 100 µM
UO-31 renal
  TGI: > 100 µM

## COC(C/C(=C/CO[Si](C(C)C)(C(C)C)C(C)C)C(=O)N(C(=O)OC(C)(C)C)c1ccccc1I)OC
786-0 renal
  TGI: > 100 µM
A498 renal
  TGI: > 100 µM
A549 NSCLC
  TGI: > 100 µM
ACHN renal
  TGI: > 100 µM
CAKI-1 renal
  TGI: > 100 µM
COLO 205 colon
  TGI: > 100 µM
DU-145 prostate
  TGI: > 100 µM
HCC-2998 colon
  TGI: > 100 µM
HCT-116 colon
  TGI: > 100 µM
HCT-15 colon
  TGI: > 100 µM
HOP-62 NSCLC
  TGI: > 100 µM
HOP-92 NSCLC
  TGI: > 100 µM
HS 578T breast
  TGI: > 100 µM
HT29 colon
  TGI: > 100 µM
IGROV1 ovarian
  TGI: 29.6 µM
K-562 leukemia
  TGI: > 100 µM
KM12 colon
  TGI: > 100 µM
LOX IMVI melanoma
  TGI: 49.8 µM
M14 melanoma
  TGI: > 100 µM
MCF7 breast
  TGI: 41.2 µM
MDA-MB-435
  TGI: > 100 µM
MDA-N
  TGI: > 100 µM
MOLT-4 leukemia
  TGI: > 100 µM
NCI-H226 lung
  TGI: > 100 µM
NCI-H23 lung
  TGI: > 100 µM
NCI-H460 lung
  TGI: > 100 µM
NCI-H522 lung
  TGI: 18.3 µM
NCI/ADR-RES ovarian
  TGI: > 100 µM
OVCAR-3 ovarian
  TGI: > 100 µM
OVCAR-4 ovarian
  TGI: > 100 µM
OVCAR-5 ovarian
  TGI: > 100 µM
OVCAR-8 ovarian
  TGI: > 100 µM
PC-3 prostate
  TGI: 77.4 µM
RPMI-8226 leukemia
  TGI: > 100 µM
SF-268 CNS
  TGI: > 100 µM
SF-295 CNS
  TGI: 41 µM
SK-MEL-2 melanoma
  TGI: 37.5 µM
SK-MEL-28 melanoma
  TGI: > 100 µM
SK-MEL-5 melanoma
  TGI: > 100 µM
SK-OV-3 ovarian
  TGI: > 100 µM
SN12C renal
  TGI: > 100 µM
SNB-19 CNS
  TGI: > 100 µM
SNB-75 CNS
  TGI: > 100 µM
SR leukemia
  TGI: > 100 µM
SW-620 colon
  TGI: > 100 µM
T-47D breast
  TGI: > 100 µM
TK-10 renal
  TGI: > 100 µM
U251 CNS
  TGI: > 100 µM
UACC-257 melanoma
  TGI: > 100 µM
UACC-62 melanoma
  TGI: > 100 µM
UO-31 renal
  TGI: > 100 µM
